biological target: T1, human KV 1.5 (IKur) (Homo sapiens, UniProt P22460); assay: block of IKur current in patch clamped L-929 cells expressing human Kv1.5; format: cell-based; conditions: 0.3 μM; patch clamped mammalian L-929 cells stably expressing human Kv1.5
T1 construct: expressed in transfected cells
Source text: Assays to determine the degree of activity of a compound as an IKur inhibitor are well known in the art and are described in references such as J. Gen. Physiol., 101(4):513-543 (April 1993), and Br. J. Pharmacol., 115(2):267-274 (May 1995).
Synders, D. J. et al., “A rapidly activating and slowly inactivating potassium channel cloned from human heart: functional analysis after stable mammalian cell culture expression”, J. Gen. Physiol., 101:513-543 (1993). • 2. Zhou, Z. et al., “Block of HERG potassium channels by the antihistamine astemizole and its metabolites desmethylastemizole and norastemizole”, J. Cardiovasc. Electrophysiol., 10(6):836-843 (1999).

T1 sequence (P22460 whole entry): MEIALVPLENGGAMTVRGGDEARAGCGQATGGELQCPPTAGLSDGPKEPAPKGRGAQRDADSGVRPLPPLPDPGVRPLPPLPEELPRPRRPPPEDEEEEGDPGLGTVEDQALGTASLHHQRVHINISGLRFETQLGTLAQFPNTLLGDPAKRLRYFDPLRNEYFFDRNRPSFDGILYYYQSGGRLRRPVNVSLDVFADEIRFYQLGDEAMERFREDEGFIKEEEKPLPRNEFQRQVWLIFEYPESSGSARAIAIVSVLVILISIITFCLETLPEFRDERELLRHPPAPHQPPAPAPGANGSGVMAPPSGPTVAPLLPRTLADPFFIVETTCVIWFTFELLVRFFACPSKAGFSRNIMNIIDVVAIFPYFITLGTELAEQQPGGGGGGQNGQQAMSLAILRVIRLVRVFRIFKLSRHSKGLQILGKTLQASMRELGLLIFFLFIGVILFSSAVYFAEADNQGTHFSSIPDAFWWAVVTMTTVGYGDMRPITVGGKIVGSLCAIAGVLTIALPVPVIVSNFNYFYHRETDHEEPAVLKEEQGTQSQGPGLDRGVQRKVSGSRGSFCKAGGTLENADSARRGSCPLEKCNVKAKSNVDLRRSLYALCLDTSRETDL

| KV1_5% Inh L929 @0.3 μM | Compound |
| --- | --- |
| 98.08% | 4-(4-(benzylamino)-5- phenylpyrrolo [1,2-f][1,2,4] triazin-2-yl) picolinic acid [Example 95] |
| 96.63% | CC(O)c1cncc(-c2nc(NCc3ccccc3)c3c(-c4ccccc4)ccn3n2)c1 (stereo not shown) [Example 21, 1-(5-(4-(Benzylamino)-5-phenylpyrrolo[1,2-f][1,2,4]triazin-2-yl)pyridin-3-yl)ethanol] |

same assay, conditions: L929, 0.3 μM; patch clamped mammalian L-929 cells stably expressing human Kv1.5; read-out: KV1_5% Inh L929 @0.3 μM

| Compound | inhibition at 0.3 µM |
| --- | --- |
| CS(=O)(=O)Nc1cncc(-c2nc(NCc3ccccc3)c3c(-c4ccccc4)ccn3n2)c1 [Example 74, N-(5-(4-(benzylamino)-5-phenylpyrrolo [1,2-f][1,2,4]triazin-2-yl)pyridin-3-yl) methanesulfonamide] | 96.7% |
| NS(=O)(=O)c1cncc(-c2nc(NCc3nc4ccccc4s3)c3c(-c4ccccc4)ccn3n2)c1 [Example 172, 5-(4-((benzo[d]thiazol-2-ylmethyl)amino)-5-phenylpyrrolo [2,1-f][1,2,4]triazin-2-yl)pyridine-3-sulfonamide] | 84.3% |
| NC(=O)c1cccc(-c2nc(NCc3ccccn3)c3c(-c4ccccc4)ccn3n2)c1 [Example 109, 3-(5-phenyl-4-(pyridin-2-ylmethylamino)pyrrolo[1,2-f][1,2,4]triazin-2-yl)benzamide] | 98.2% |
| NC(=O)c1cncc(-c2nc(NCc3ccccn3)c3c(-c4ccccc4)ccn3n2)c1 [Example 9, 5-(5-Phenyl-4-(pyridin-2-ylmethylamino)pyrrolo[1,2-f][1,2,4]triazin-2-yl)nicotinamide] | 98.4% |
| c1ccc(-c2ccn3nc(-c4cn[nH]c4)nc(NCc4ccccn4)c23)cc1 [Example 65, 5-phenyl-2-(1H-pyrazol-4-yl)-N-(pyridin-2-ylmethyl) pyrrolo[1,2-f][1,2,4] triazin-4-amine] | 97.7% |
| N#Cc1cccc(F)c1CNc1nc(-c2cncc(S(N)(=O)=O)c2)nn2ccc(-c3ccccc3)c12 [Example 141, 5-(4-((2-cyano-6-fluorobenzyl)amino)-5-phenylpyrrolo [2,1-f][1,2,4]triazin-2-yl)pyridine-3-sulfonamide] | 87.7% |
| NS(=O)(=O)c1cncc(-c2nc(NCc3nccs3)c3c(-c4ccccc4)ccn3n2)c1 [Example 163, 5-(5-phenyl-4-((thiazol-2-ylmethyl)amino)pyrrolo [2,1-f][1,2,4]triazin-2-yl)pyridine-3-sulfonamide] | 97.5% |
| CS(=O)(=O)Nc1cncc(-c2nc(NCc3ccccn3)c3c(-c4ccc(F)cc4)ccn3n2)c1 [Example 110, N-(5-(5-(4-fluorophenyl)-4-(pyridin-2-ylmethylamino)pyrrolo[1,2-f] [1,2,4]triazin-2-yl)pyridin-3-yl) methanesulfonamide] | 81.4% |
| COc1ccc(-c2ccn3nc(-c4cncc(S(N)(=O)=O)c4)nc(NCc4ccccn4)c23)cc1 [Example 105, 5-(5-(4-methoxyphenyl)-4-(pyridin-2-ylmethylamino)pyrrolo[1,2-f][1,2,4]triazin-2-yl)pyridine-3-sulfonamide] | 89.3% |
| CC(O)c1cncc(-c2nc(NCc3ccccc3)c3c(-c4ccccc4)ccn3n2)c1 (stereo not shown) [Example 21, 1-(5-(4-(Benzylamino)-5-phenylpyrrolo[1,2-f][1,2,4]triazin-2-yl)pyridin-3-yl)ethanol] | 93.2% |
| CCS(=O)(=O)Nc1cncc(-c2nc(NCc3ccccn3)c3c(-c4ccccc4)ccn3n2)c1 [Example 62, N-(5-(5-phenyl-4-(pyridin-2-ylmethylamino)pyrrolo[1,2-f][1,2,4]triazin-2-yl)pyridin-3-yl)ethanesulfonamide] | 97.9% |
| CC(=O)Nc1ccc(-c2nc(NCc3ccccn3)c3c(-c4ccccc4)ccn3n2)cc1 [Example 26, N-(4-(5-Phenyl-4-(pyridin-2-ylmethylamino)pyrrolo[1,2-f][1,2,4]triazin-2-yl)phenyl)acetamide] | 94.5% |
| c1ccc(CNc2nc(-c3cncc(-c4nnn[nH]4)c3)nn3ccc(-c4ccccc4)c23)cc1 [Example 11, 2-(5-(1H-Tetrazol-5-yl)pyridin-3-yl)-N-benzyl-5-phenylpyrrolo[1,2-f][1,2,4]triazin-4-amine] | 93.4% |
| COc1ccc(-c2nc(NCc3ccccn3)c3c(-c4ccccc4)ccn3n2)cn1 [Example 111, 2-(6-methoxypyridin-3-yl)-5-phenyl-N-(pyridin-2-ylmethyl)pyrrolo[1,2-f] [1,2,4]triazin-4-amine] | 97% |
| O=C(Nc1ccc(-n2cncn2)cc1)c1nc(NCc2ccccc2)c2c(-c3ccccc3)ccn2n1 [Example 123, N-(4-(1H-1,2,4-triazol-1-yl)phenyl)-4-(benzylamino)-5-phenylpyrrolo [1,2-f][1,2,4] triazine-2-carboxamide] | 63.5% |
| NS(=O)(=O)c1nc(-c2nc(NCc3ccccn3)c3c(-c4ccccc4)ccn3n2)cs1 [Example 5, 4-(5-Phenyl-4-(pyridin-2-ylmethylamino)pyrrolo[1,2-f][1,2,4]triazin-2-yl)thiazole-2-sulfonamide] | 98.5% |

Results, then the compound that gave them:

| inhibition at 0.3 µM | Compound |
| --- | --- |
| 94.7% | NS(=O)(=O)c1cncc(-c2nc(NCc3cnccn3)c3c(-c4ccccc4)ccn3n2)c1 [Example 160, 5-(5-phenyl-4-(pyrazin-2-ylmethylamino)pyrrolo [1,2-f][1,2,4]triazin-2-yl)pyridine-3-sulfonamide] |
| 85.4% | COc1ccc(-c2ccn3nc(-c4cncc(N)c4)nc(NCc4ccccn4)c23)cn1 [Example 70, 2-(5-aminopyridin-3-yl)-5-(6-methoxypyridin-3-yl)-N-(pyridin-2-ylmethyl) pyrrolo[1,2-f][1,2,4] triazin-4-amine] |
| 96.9% | N#Cc1ccc(-c2nc(NCc3ccccc3)c3c(-c4ccccc4)ccn3n2)cn1 [Example 80, 5-(4-(-benzylamino)-5-phenylpyrrolo [1,2-f][1,2,4]triazin-2-yl) picolinonitrile] |
| 98.5% | NS(=O)(=O)c1cncc(-c2nc(NCc3ccccn3)c3c(-c4ccccc4)ccn3n2)c1 [Example 2, 5-(5-Phenyl-4-(pyridin-2-ylmethylamino)pyrrolo[1,2-f][1,2,4]triazin-2-yl)pyridine-3-sulfonamide] |
| 36.9% | CC(=O)Nc1ccccc1CNc1nc(-c2cncc(S(N)(=O)=O)c2)nn2ccc(-c3ccccc3)c12 [Example 180, N-(2-(((5-phenyl-2-(5-sulfamoylpyridin-3-yl)pyrrolo[2,1-f][1,2,4]triazin-4-yl)amino)methyl)phenyl)acetamide] |
| 95.5% | CC(C)OC(=O)Nc1cncc(-c2nc(NCc3ccccn3)c3c(-c4ccccc4)ccn3n2)c1 [Example 72, isopropyl 5-(5-phenyl-4-(pyridin-2-ylmethylamino)pyrrolo[1,2-f][1,2,4]triazin-2-yl)pyridin-3-ylcarbamate] |
| 86.6% | NS(=O)(=O)c1ccc(CCNC(=O)c2nc(NCc3ccccc3)c3c(-c4ccccc4)ccn3n2)cc1 [Example 117, 4-(benzylamino)-5-phenyl-N-(4-sulfamoylphenethyl) pyrrolo[1,2-f][1,2,4] triazine-2-carboxamide] |
| 80.9% | N#Cc1ccccc1-c1ccn2nc(-c3cncc(S(N)(=O)=O)c3)nc(NCc3ccccn3)c12 [Example 184, 5-(5-(2-cyanophenyl)-4-((pyridin-2-ylmethyl)amino)pyrrolo [2,1-f][1,2,4]triazin-2-yl)pyridine-3-sulfonamide] |
| 93.2% | CS(=O)(=O)Nc1cccc(NC(=O)c2nc(NCc3ccccc3)c3c(-c4ccccc4)ccn3n2)c1 [Example 27, 4-(Benzylamino)-N-(3-(methylsulfonamido)phenyl)-5-phenylpyrrolo[1,2-f][1,2,4]triazine-2-carboxamide] |
| 85.9% | O=C(c1cncc(-c2nc(NCc3ccccc3)c3c(-c4ccccc4)ccn3n2)c1)N1CCOCC1 [Example 84, (5-(4-(benzylamino)-5-phenylpyrrolo [1,2-f][1,2,4]triazin-2-yl)pyridin-3-yl)(morpholino) methanone] |
| 27.2% | N#Cc1cncc(-c2nc(NC(c3ccccc3)C(F)(F)F)c3c(-c4ccccc4)ccn3n2)c1 (stereo not shown) [Example 88, 5-(5-phenyl-4-(-2-,2,2-trifluoro-1-phenylethylamino)pyrrolo [1,2-f][1,2,4]triazin-2-yl)nicotinonitrile] |
| 89.4% | NS(=O)(=O)c1cccc(NC(=O)c2nc(NCc3ccccc3)c3c(-c4ccccc4)ccn3n2)c1 [Example 116, 4-(benzylamino)-5-phenyl-N-(3-sulfamoylphenyl) pyrrolo[1,2-f][1,2,4] triazine-2-carboxamide] |
| 98.5% | COc1cccc(CNc2nc(-c3cnc(OC)c(S(N)(=O)=O)c3)nn3ccc(-c4ccccc4)c23)n1 [Example 139, 2-methoxy-5-(4-(((6-methoxypyridin-2-yl)methyl)amino)-5-phenylpyrrolo [2,1-f][1,2,4]triazin-2-yl)pyridine-3-sulfonamide] |
| 93.7% | NS(=O)(=O)c1cncc(-c2nc(NCc3ccccn3)c3c(-c4ccccc4)ccn3n2)c1C(F)F [Example 182, 4-(difluoromethyl)-5-(5-phenyl-4-((pyridin-2-ylmethyl)amino)pyrrolo [2,1-f][1,2,4]triazin-2-yl)pyridine-3-sulfonamide] |
| 97.8% | NS(=O)(=O)c1ccc(-c2nc(NCc3ccccn3)c3c(-c4ccccc4)ccn3n2)cn1 [Example 183, 5-(5-phenyl-4-((pyridin-2-ylmethyl)amino)pyrrolo[2,1-f][1,2,4]triazin-2-yl)pyridine-2-sulfonamide] |
| 97.5% | NC(=O)CNS(=O)(=O)c1cncc(-c2nc(NCc3ccccn3)c3c(-c4ccccc4)ccn3n2)c1 [Example 28, 2-(5-(5-Phenyl-4-(pyridin-2-ylmethylamino)pyrrolo[1,2-f][1,2,4]triazin-2-yl)pyridine-3-sulfonamido)acetamide] |
